Data on two compounds can be found in patent US20240368178A1, “IMIDAZOCYCLIC COMPOUND AND APPLICATION THEREOF” (DONGBAO PURPLE STAR (HANGZHOU) BIOPHARMACEUTICAL CO., LTD., priority 2021, published 2024).

In one series the test system is rat hepatocytes. Put plainly: HMS CLint (liver) hepatocyte metabolic stability, rat. It is filed as in vitro ADME. As for the experimental part: (§1) Experimental purpose: to test the metabolic stability of the test sample in human and rat liver cells.
(§2) • (1) test compound (10 mM), reference substance: 7-ethoxycoumarin (30 mM), 7-hydroxycoumarin (reference substance, 30 mM); • mouse hepatocytes with cell viability of 73.8%, supplier Cat No.: BioreclamationlVTM005052; • rat hepatocytes with cell viability of 78.3%, supplier Cat No.: BioreclamationlVTM00005-T; • canine hepatocytes with cell viability of 80.2%, supplier Cat No.: BioreclamationlVTM00205; • monkey liver cells with cell viability of 80.9%, supplier Cat No.: RILD HP—SXH-02M; • human hepatocytes with cell viability of 94.6%, supplier Cat No.: Bioreclamation IVTX008001. • (2) Buffer system:
(§3) Thawing medium: Williams' medium E containing 5% fetal bovine serum, 30% Percoll solution, and other auxiliary materials.
(§4) Incubation medium: Williams' medium E (without phenol red) containing 2 mM L-glutamine and 25 mM 4-(2-hydroxyethyl)-1-piperazineethanesulfonic acid.
(§5) Termination solution: acetonitrile containing 200 ng/mL tolbutamide and labetalol as internal standard. […]
(§6) The residual rates of the test compound and the control compound were determined using the following formula: […]
(§7) The elimination rate constant (k) of the test compound and the control compound in hepatocytes was calculated by plotting the logarithm of the residual rate against time. […]

The nature of series [1]: In vivo PK parameter testing in rats. To be noted: male SD rats. Further details: species or system SD rat. As for the experimental part:
Male SD rats and male cynomolgus monkeys were used as test animals, and the plasma concentration of the compound was determined and the pharmacokinetic behavior was evaluated after a single oral administration.
Two groups of healthy rats (fasted) were administered by intravenous injection (IV) and oral gavage (PO), each group with 2 rats. The vehicle was a mixture of 20% PEG400, 10% solutol, and 70% water. After mixing the compound to be tested with the vehicle, the mixture was vortexed and sonicated to prepare clear solutions of 0.2 mg/mL and 0.5 mg/mL. The intravenous injection dose for rats was 1.0 mg/kg, and the oral gavage dose was 5.0 mg/kg. After administration, the whole blood was collected at the time points of 0.083 hours, 0.25 hours, 0.5 hours, 1.0 hour, 2.0 hours, 4.0 hours, 8.0 hours, 12.0 hours, and 24.0 hours. Plasma was prepared from the whole blood and analyzed for drug concentration by LC-MS/MS.

The next series concerns canine hepatocytes. Put plainly: HMS CLint (liver) hepatocyte metabolic stability, dog. It is filed as in vitro ADME. As for the experimental part: as §1, §2, §3, §4, §5, §6, §7
Another series relates to monkey liver cells. Kind of series: HMS CLint (liver) hepatocyte metabolic stability, cynomolgus monkey. To be noted: cynomolgus monkey hepatocytes. It is filed as in vitro ADME. The method, then:
as §1, §2, §3, §4, §5, §6, §7

Molecules are shown by their SMILES. A value given as a limit tells only on which side of the number the result lay.

Regarding `C[C@]1(c2ccc(Cl)cn2)Oc2cccc(C3CCN(Cc4nc5sc(C(=O)O)cc5n4C[C@@H]4CCO4)CC3)c2O1` (single isomer, unassigned) [Compound 002], in the series on rat hepatocytes, the “HMS Rat” value was 138.7 mL/min/kg. In series [1] (IV 1.0 mg/kg, PO 5.0 mg/kg), this compound gave a F % of 27.1%. In series [1] (intravenous 1.0 mg/kg), this compound had a Cl of 12.0 mL/min/kg and a Vd of 0.392 L/kg. For the same compound, in series [1] (oral gavage 5.0 mg/kg), the “AUC (PO)” value came out at 3.439 µM·h and the “T1/2 (PO)” value stood at 1.61 h. The “HMS Dog” value with canine hepatocytes is on record as 115.4 mL/min/kg. Further, the “HMS Cynomolgus monkeys” value in the series with monkey liver cells is on record as less than 23.0 mL/min/kg.
In the case of `C[C@@]1(c2ccc(Cl)cn2)Oc2cccc(N3CCN(Cc4nc5sc(C(=O)O)cc5n4C[C@H]4CCO4)CC3)c2O1` [Compound 003], the “HMS Rat” value with rat hepatocytes amounted to 5.1 mL/min/kg. Also, in the series with canine hepatocytes, the “HMS Dog” value stood at 58.7 mL/min/kg. The “HMS Cynomolgus monkeys” value in the series on monkey liver cells is recorded as 41.6 mL/min/kg.

By Vd is commonly meant a proportionality between amount in the body and measured concentration, not a real space.
